Molecular target: Human DDB1 (Homo sapiens (Human), UniProt Q16531)
Experiment: Surface plasmon resonance (SPR) binding assay to immobilized His-DDB1
Conditions: SPR, DDB1 binding moieties with linkers and/or target protein binding moiety; read-out: Binding (Kd)
Procedure, shortened: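 Baculovirus-expressed His-DDB1 (High5 cells) amine-coupled to 11,000–13,000 RU on a CM5 chip; compounds injected in multi-cycle format without regeneration at 25° C in HBS-EP pH 7.4 (120 s association/dissociation). Double-referenced, solvent-corrected data fit to steady-state affinity model for KD.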

Chain of Human DDB1 (Q16531 whole entry): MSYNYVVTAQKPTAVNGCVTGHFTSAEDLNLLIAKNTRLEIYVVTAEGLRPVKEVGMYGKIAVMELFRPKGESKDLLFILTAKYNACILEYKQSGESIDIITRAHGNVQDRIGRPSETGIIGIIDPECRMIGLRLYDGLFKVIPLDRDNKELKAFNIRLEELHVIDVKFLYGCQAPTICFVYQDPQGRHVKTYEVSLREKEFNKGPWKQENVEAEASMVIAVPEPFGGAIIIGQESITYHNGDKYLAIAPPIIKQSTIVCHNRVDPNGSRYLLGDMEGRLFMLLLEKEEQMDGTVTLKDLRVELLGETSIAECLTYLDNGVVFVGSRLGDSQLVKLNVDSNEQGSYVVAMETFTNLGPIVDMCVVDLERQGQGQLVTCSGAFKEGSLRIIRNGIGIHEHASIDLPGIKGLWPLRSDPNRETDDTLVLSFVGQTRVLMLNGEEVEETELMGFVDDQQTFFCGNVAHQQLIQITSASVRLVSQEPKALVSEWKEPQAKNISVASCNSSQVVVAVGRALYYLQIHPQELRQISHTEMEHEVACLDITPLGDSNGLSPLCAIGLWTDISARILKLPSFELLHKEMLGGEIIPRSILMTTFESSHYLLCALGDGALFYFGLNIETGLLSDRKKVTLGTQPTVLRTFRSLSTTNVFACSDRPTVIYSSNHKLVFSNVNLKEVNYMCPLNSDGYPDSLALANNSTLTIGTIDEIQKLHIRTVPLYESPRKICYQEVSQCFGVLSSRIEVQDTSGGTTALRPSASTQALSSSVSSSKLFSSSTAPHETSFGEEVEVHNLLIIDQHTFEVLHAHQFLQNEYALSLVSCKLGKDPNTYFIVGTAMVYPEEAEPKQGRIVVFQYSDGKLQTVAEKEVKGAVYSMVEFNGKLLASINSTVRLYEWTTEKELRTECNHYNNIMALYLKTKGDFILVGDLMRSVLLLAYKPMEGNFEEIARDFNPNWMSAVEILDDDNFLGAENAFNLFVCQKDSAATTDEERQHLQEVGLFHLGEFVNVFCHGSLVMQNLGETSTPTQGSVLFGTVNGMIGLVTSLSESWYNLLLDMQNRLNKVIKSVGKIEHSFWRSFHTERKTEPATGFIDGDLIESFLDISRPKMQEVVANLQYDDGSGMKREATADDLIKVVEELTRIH

Row | Compound | Kd
1 | CC(=O)Nc1cc(NCCOCCOCCNC(=O)CN2CCN(c3ccc(Nc4ncc5c(C)c(C(C)=O)c(=O)n(C6CCCC6)c5n4)nc3)CC2)ccc1C(=O)Nc1nc(C)c([N+](=O)[O-])s1 [D-45, 2-Acetamido-4-((2-(2-(2-(2-(4-(6-((6-acetyl-8-cyclopentyl-5-methyl-7-oxo-7,8-dihydropyrido[2,3-d]pyrimidin-2-yl)amino)pyridin-3-yl)piperazin-1-yl)acetamido)ethoxy)ethoxy)ethyl)amino)-N-(4-methyl-5-nitrothiazol-2-yl)benzamide] | < 20 µM
2 | CC(=O)Nc1cc(NCCOCCOCCOCCN)ccc1C(=O)Nc1nc(C)c([N+](=O)[O-])s1 [BL-8, 2-Acetamido-4-((2-(2-(2-(2-aminoethoxy)ethoxy)ethoxy)ethyl)amino)-N-(4-methyl-5-nitrothiazol-2-yl)benzamide] | 20 to 100 µM
3 | CC(=O)Nc1cc(NCCOCCNC(=O)CN2CCC(n3nc(N4CCCc5cc(-c6cnn(C)c6)c(C(F)F)cc54)c4c3CCN(C(C)=O)C4)CC2)ccc1C(=O)Nc1nc(C)c([N+](=O)[O-])s1 [D-7, 2-Acetamido-4-((2-(2-(2-(4-(5-acetyl-3-(7-(difluoromethyl)-6-(1-methyl-1H-pyrazol-4-yl)-3,4-dihydroquinolin-1 (2H)-yl)-4,5,6,7-tetrahydro-1H-pyrazolo[4,3-c]pyridin-1-yl)piperidin-1-yl)acetamido)ethoxy)ethyl)amino)-N-(4-methyl-5-nitrothiazol-2-yl)benzamide] | 20 to 100 µM
4 | CC(=O)Nc1cc(NCCOCCOCCOCCNC(=O)CN2CCN(c3ccc(Nc4ncc5c(C)c(C(C)=O)c(=O)n(C6CCCC6)c5n4)nc3)CC2)ccc1C(=O)Nc1nc(C)c([N+](=O)[O-])s1 [D-46, 2-Acetamido-4-((1-(4-(6-((6-acetyl-8-cyclopentyl-5-methyl-7-oxo-7,8-dihydropyrido[2,3-d]pyrimidin-2-yl)amino)pyridin-3-yl)piperazin-1-yl)-2-oxo-6,9,12-trioxa-3-azatetradecan-14-yl)amino)-N-(4-methyl-5-nitrothiazol-2-yl)benzamide] | < 20 µM
5 | CC(=O)Nc1cc(C(=O)NCCOCCOCCOCCN)ccc1C(=O)Nc1nc(C)c([N+](=O)[O-])s1 [BL-5, 2-acetamido-N^4-(2-(2-(2-(2-aminoethoxy)ethoxy)ethoxy)ethyl)-N^1-(4-methyl-5-nitrothiazol-2-yl)terephthalamide] | 20 to 100 µM

Same assay, conditions: SPR, steady state affinity model, 25° C.; read-out: Binding (DDB1 binder activities, Kd)

Row | Compound | Kd
6 | CC(=O)Nc1ccccc1C(=O)Nc1ccc(-c2ccccc2)s1 [B-130, 2-Acetamido-N-(5-phenylthiophen-2-yl)benzamide] | > 100 µM
7 | CC(C)Oc1ccccc1C(=O)Nc1ncc([N+](=O)[O-])s1 [B-74, 2-Isopropoxy-N-(5-nitrothiazol-2-yl)benzamide] | < 20 µM
8 | CC(=O)Nc1ccccc1C(=O)Nc1ccc(Cl)cc1 [B-58, 2-Acetamido-N-(4-chlorophenyl)benzamide] | 20 to 100 µM
9 | Nc1nc(N2CCOCC2)nc2c1CCN(Cc1cccc3cccnc13)C2 [B-136, 2-morpholino-7-(quinolin-8-ylmethyl)-5,6,7,8-tetrahydropyrido[3,4-d]pyrimidin-4-amine] | 20 to 100 µM
10 | CC(=O)Nc1ccccc1C(=O)Nc1ncc(C(F)(F)F)s1 [B-38, 2-acetamido-N-(5-(trifluoromethyl)thiazol-2-yl)benzamide] | < 20 µM
11 | CC(=O)Nc1ccccc1C(=O)Nc1ncc([N+](=O)[O-])s1 [B-4, 2-Acetamido-N-(5-nitrothiazol-2-yl)benzamide] | < 20 µM
12 | O=C(Nc1ccccc1C(=O)Nc1ncc([N+](=O)[O-])s1)c1ccccc1 [B-63, 2-Benzamido-N-(5-nitrothiazol-2-yl)benzamide] | > 100 µM
13 | CC(=O)Nc1ccccc1C(=O)Nc1nc(-c2ccccc2)c([N+](=O)[O-])s1 [B-34, 2-acetamido-N-(5-nitro-4-phenylthiazol-2-yl)benzamide] | < 20 µM
14 | Cc1ccccc1C(=O)Nc1nccs1 [B-176, 2-Methyl-N-(thiazol-2-yl)benzamide] | < 20 µM
15 | CCCCNc1ccc(C(=O)Nc2ncc([N+](=O)[O-])s2)c(Nc2ccccc2)c1 [B-108, 4-(Butylamino)-N-(5-nitrothiazol-2-yl)-2-(phenylamino)benzamide] | 20 to 100 µM
16 | CC(C)Nc1ccccc1C(=O)Nc1ncc([N+](=O)[O-])s1 [B-70, 2-(Isopropylamino)-N-(5-nitrothiazol-2-yl)benzamide] | < 20 µM
17 | CC(=O)Nc1ccccc1C(=O)Nc1ccc(C#N)s1 [B-128, 2-Acetamido-N-(5-cyanothiophen-2-yl)benzamide] | 20 to 100 µM
18 | Cc1cc(Br)ccc1C(=O)Nc1ncc([N+](=O)[O-])s1 [B-152, 4-Bromo-2-methyl-N-(5-nitrothiazol-2-yl)benzamide] | < 20 µM
19 | O=C(Nc1ncc([N+](=O)[O-])s1)c1ccccc1OC(F)(F)F [B-77, N-(5-nitrothiazol-2-yl)-2-(trifluoromethoxy)benzamide] | > 100 µM
20 | CCOc1cc(NC2CCOC2)ccc1C(=O)Nc1ncc([N+](=O)[O-])s1 (stereo not shown) [B-97, 2-Ethoxy-N-(5-nitrothiazol-2-yl)-4-((tetrahydrofuran-3-yl)amino)benzamide] | > 100 µM
21 | c1ncc(Nc2nccc(C3CCCCN3)n2)cn1 (stereo not shown) [B-137, 4-(piperidin-2-yl)-N-(pyrimidin-5-yl)pyrimidin-2-amine] | 20 to 100 µM
22 | CCCCNc1ccc(C(=O)Nc2ncc(C(F)(F)F)s2)c(-c2ccccc2)c1 [B-118, 5-(Butylamino)-N-(5-(trifluoromethyl)thiazol-2-yl)-[1,1′-biphenyl]-2-carboxamide] | 20 to 100 µM
23 | CC(=O)Nc1ccccc1C(=O)Nc1ncc(C(C)C)s1 [B-43, 2-Acetamido-N-(5-isopropylthiazol-2-yl)benzamide] | 20 to 100 µM
24 | CC(=O)Nc1ccccc1C(=O)Nc1ncc(C#N)s1 [B-39, 2-acetamido-N-(5-cyanothiazol-2-yl)benzamide] | 20 to 100 µM
25 | CCCCNc1ccc(C(=O)Nc2nc(C3CC3)c([N+](=O)[O-])s2)c(-c2ccccc2)c1 [B-115, 5-(Butylamino)-N-(4-cyclopropyl-5-nitrothiazol-2-yl)-[1,1′-biphenyl]-2-carboxamide] | > 100 µM
26 | CC(=O)Nc1ccccc1C(=O)Nc1ccc(Br)cc1 [B-59, 2-Acetamido-N-(4-bromophenyl)benzamide] | 20 to 100 µM
27 | COc1ccc(C(=O)Nc2ncc([N+](=O)[O-])s2)c(C)c1 [B-156, 4-Methoxy-2-methyl-N-(5-nitrothiazol-2-yl)benzamide] | > 100 µM
28 | CCCCNc1ccc(C(=O)Nc2ncc([N+](=O)[O-])s2)c(C)c1 [B-165, 4-(Butylamino)-2-methyl-N-(5-nitrothiazol-2-yl)benzamide] | 20 to 100 µM

From patent US20240066136A1, “MODIFIED PROTEINS AND PROTEIN DEGRADERS” (Cullgen (Shanghai), Inc., priority 2020, published 2024)
